In patent publication US20250255961A1, “METHODS TO STIMULATE IMMUNE RESPONSES TO MUTANT RAS USING NUCLEATED CELLS” (STEMCELL TECHNOLOGIES CANADA INC., priority 2020, published 2025):
Entries after “also recorded” stand apart in the source; their conditions may differ.

Key:
[1] = system: K-Ras G12V responder T cells; assay: IFN-γ ELISPOT: peptide-loaded HLA-A*11+ human PBMCs co-cultured with K-Ras G12V responder T cells; format: cell-based; conditions: for IFN-γ expressing K-Ras-G12V responder T cells upon co-culture: HLA-A*11+ human PBMCs SQZ-loaded with 100 μM SLP; for IFN-γ secretion by K-Ras-G12V responder T cells upon co-culture: Example 4, FIG. 4, HLA-A*11+ human PBMCs (donor 296) SQZ-loaded with 100 μM SLP
Description: (§1) Human PBMCs from HLA-A*11^+ donor (donor 296) were prepared at a density of 10×10^6/mL, SQZ processed at room temperature through a constriction of 4.5 μm width, 10 μm length and 70 μm depth at 60 psi with 100 μM of the respective K-Ras synthetic long peptide (G12V^1-16, G12V^2-19) or with vehicle control (DMSO) in RPMI medium. Following SQZ-processing, the SQZ-loaded PMBCs were centrifuged, and the supernatant was discarded. The cells were subsequently washed once in R10 medium (RPMI+10% FCS+1% Pen/Strep), then washed twice in CTL medium (supplemented with 1% glutamine), before resuspension in fresh CTL medium (supplemented with 1% glutamine).
2×10^5 SQZ-loaded PBMCs were then placed in co-culture with 5×10^4 K-Ras G12V responder T cells (generated in transgenic mice) in an IFN-γ ELISPOT plate. As a positive control, 10 μM K-Ras G12V^7-16 peptide containing the minimal epitope was added directly to untreated PBMCs and responder cells in the ELISPOT plate (peptide spike). The plate was incubated overnight at 37° C. and then developed/quantified according to manufacturer's instructions.
as §1, with “donor” for “donor (donor 296)”, “constriction with” for “constriction of”, “peptide (K-Ras G12V^3-17, K-Ras G12V^3-42)” for “peptide (G12V^1-16, G12V^2-19)”, “medium. An irrelevant synthetic long peptide (HPV-E7.6) was used as a negative control.” for “medium.”
as §1, with “donor” for “donor (donor 296)”, “10× 10^6/mL,” for “10×10^6/mL,”, “(wild type K-Ras^1-16, G12V^1-16, wild type K-Ras^2-22, or G12V^2-22)” for “(G12V^1-16, G12V^2-19)”
as §1, with “donor” for “donor (donor 296)”, “of a single” for “of the respective”, “peptide (G12V^1-16” for “peptide (G12V^1-16, G12V^2-19)”, “or G12V^2-19), or a combination of two K-Ras synthetic long peptides which are each at 100 μM (G12V^1-16 plus G12D^1-16 or G12V^2-19 plus G12D^1-16) or” for “or with”, “glutamine). […]” for “glutamine).”

[2] = system: K-Ras G12V responder T cells; assay: as above; format: cell-based
[3] = system: K-Ras G12D responder T cells; assay: IFN-γ ELISPOT: peptide-loaded HLA-A*11+ human PBMCs co-cultured with K-Ras G12D responder T cells; format: cell-based, transgenic mice; conditions: for IFN-γ expressing by K-Ras-G12D responder T cells upon co-culture: Example 1, FIG. 1, vehicle control DMSO, overnight 37° C.; for IFN-γ expressing responder T cells upon co-culture: PBMCs incubated with 100 μM SLP at room temperature without SQZ (Endo-G12D); for IFN-γ secretion by K-Ras-G12D responder T cells upon co-culture: Example 3, FIG. 3, HLA-A*11+ human PBMCs (donor 339) SQZ-loaded with 100 μM SLP
Description: as §1, with “donor” for “donor (donor 296)”, “and SQZ-processed” for “SQZ processed”, “K-Ras G12D” for “K-Ras”, “(either G12D^1-16, G12D^2-19, G12D^2-22, G12D^2-29)” for “(G12V^1-16, G12V^2-19)”, “PBMCs” for “PMBCs”
2×10^5 SQZ-loaded PBMCs were then placed in co-culture with 5×10^4 K-Ras G12D responder T cells (generated in transgenic mice) in an IFN-γ ELISPOT plate. As a positive control, 10 μM K-Ras G12D^7-16 peptide containing the minimal epitope was added directly to untreated PBMCs and responder cells in the ELISPOT plate (peptide spike). The plate was incubated overnight at 37° C. and then developed/quantified according to manufacturer's instructions.
as §1, with “donor” for “donor (donor 296)”, “10×10^6/mL, and” for “10×10^6/mL,”, “(either wild type K-Ras^1-16 or K-Ras-G12D^1-16)” for “(G12V^1-16, G12V^2-19)”, “glutamine). […]” for “glutamine).”
as §1, with “339)” for “296)”, “(either wild type K-Ras^2-22 or K-Ras G12D^2-22)” for “(G12V^1-16, G12V^2-19)”, “glutamine). […]” for “glutamine).”
2×10^5 of either the SQZ-loaded PBMCs (SQZ-G12D) or SLP-incubated PBMCs (Endo-G12D), or an equal volume of the fluid phase solution (FF-G12D) were then placed in co-culture with 5×10^4 K-Ras G12D responder T cells (generated in transgenic mice) in an IFN—Y ELISPOT plate. As a positive control, 10 μM K-Ras G12D^7-16 peptide containing the minimal epitope was added directly to untreated PBMCs and responder cells in the ELISPOT plate (spike). 10 μM wild type K-Ras^7-16 peptide was added to PBMCs and responder as another […] (spike). The plate was incubated overnight at 37° C. and then developed/quantified according to manufacturer's instructions.

[4] = HLA-A*11+ human PBMCs SQZ-loaded with 100 μM SLP
[5] = Example 2, FIG. 2, HLA-A*11+ human PBMCs SQZ-loaded with 100 μM SLP, compared to vehicle control
[6] = Example 6, FIG. 6, compared to vehicle control

EYKLVVVGAVGVGKS [G12V^3-17, K-Ras G12V synthetic long peptide, residues 3-17]
IFN-γ expressing K-Ras-G12V responder T cells upon co-culture ([1]; Example 5, FIG. 5): significant increases | IFN-γ expressing K-Ras-G12V responder T cells upon co-culture ([2]; Example 5, FIG. 5, HLA-A*11+ human PBMCs SQZ-loaded with 100 μM SLP, listed as K-Ras-G12V^3-17): increased amount

EYKLVVVGAVGVGKSALTIQLIQNHFVDEYDPTIEDSYRK [G12V^3-42, K-Ras G12V synthetic long peptide, residues 3-42]
IFN-γ expressing K-Ras-G12V responder T cells upon co-culture ([1]; Example 5, FIG. 5): significant increases | IFN-γ expressing K-Ras-G12V responder T cells upon co-culture ([2]; Example 5, FIG. 5, HLA-A*11+ human PBMCs SQZ-loaded with 100 μM SLP, listed as K-Ras-G12V^3-42): increased amount

MTEYKLVVVGADGVGK [G12D^1-16, K-Ras G12D synthetic long peptide, residues 1-16]
IFN-γ expressing by K-Ras-G12D responder T cells upon co-culture [3, 4]: increased amount; also recorded: significant increases | IFN-γ expressing K-Ras-G12D responder T cells upon co-culture [3, 5]: significant increases | IFN-γ expressing K-Ras-G12D responder T cells upon co-culture ([3]; Example 2, FIG. 2, HLA-A*11+ human PBMCs SQZ-loaded with 100 μM SLP, compared to vehicle control, listed as K-Ras-G12D^1-16): increased amount | IFN-γ expressing K-Ras-G12D responder T cells upon co-culture ([3]; Example 7, FIG. 7, HLA-A*11+ human PBMCs SQZ-loaded with one SLP or a combination of two SLPs, each at 100 μM): significant increases | IFN-γ expressing K-Ras G12D responder T cells upon co-culture ([3]; Example 10, FIG. 10, HLA-A*11+ human PBMCs SQZ-loaded with 100 μM SLP (SQZ-G12D), listed as K-Ras-G12D^1-16): significant increases; also recorded: increased amount | IFN-γ expressing responder T cells upon co-culture ([3]; Example 10): did not result in increase

MTEYKLVVVGAVGVGK [G12V^1-16, K-Ras G12V synthetic long peptide, residues 1-16]
IFN-γ secretion by K-Ras-G12V responder T cells upon co-culture [1]: significantly increased | IFN-γ secretion by K-Ras-G12V responder T cells upon co-culture ([1]; listed as K-Ras-G12V^1-16): increased amount | IFN-γ expressing K-Ras-G12V responder T cells upon co-culture [1, 6]: significant increases | IFN-γ expressing K-Ras-G12V responder T cells upon co-culture ([1]; Example 6, FIG. 6, compared to vehicle control, listed as K-Ras-G12V^1-16): increased amount | IFN-γ expressing K-Ras-G12V responder T cells upon co-culture ([2]; Example 8, FIG. 8, HLA-A*11+ human PBMCs SQZ-loaded with one SLP or a combination of two SLPs, each at 100 μM): significant increases

TEYKLVVVGADGVGKSAL [G12D^2-19, K-Ras G12D synthetic long peptide, residues 2-19]
IFN-γ expressing by K-Ras-G12D responder T cells upon co-culture [3, 4]: increased amount; also recorded: significant increases

TEYKLVVVGADGVGKSALTIQ [G12D^2-22, K-Ras G12D synthetic long peptide, residues 2-22]
IFN-γ expressing by K-Ras-G12D responder T cells upon co-culture [3, 4]: increased amount; also recorded: significant increases | IFN-γ secretion by K-Ras-G12D responder T cells upon co-culture ([3]; compared to vehicle control): significantly increased | IFN-γ secretion by K-Ras-G12D responder T cells upon co-culture ([3]; compared to vehicle control, listed as K-Ras-G12D^2-22): increased amount

TEYKLVVVGADGVGKSALTIQLIQNHFV [G12D^2-29, K-Ras G12D synthetic long peptide, residues 2-29]
IFN-γ expressing by K-Ras-G12D responder T cells upon co-culture [3, 4]: increased amount; also recorded: significant increases | IFN-γ expressing K-Ras G12D responder T cells upon co-culture ([3]; Example 10, FIG. 10, HLA-A*11+ human PBMCs SQZ-loaded with 100 μM SLP (SQZ-G12D), listed as K-Ras-G12D^2-29): significant increases; also recorded: increased amount | IFN-γ expressing responder T cells upon co-culture ([3]; Example 10): did not result in increase

VVVGADGVGK [K-Ras G12D^7-16, positive control peptide spike, reference compound]
IFN-γ expressing K-Ras G12D responder T cells upon co-culture ([3]; Example 10, 10 μM peptide added directly to untreated PBMCs and responder cells (peptide spike, positive control)): significant increases

wild type K-Ras^1-16: wild type K-Ras synthetic long peptide, residues 1-16; mutation-specificity comparator (MTEYKLVVVGAGGVGK; UniProt P01116 1-16, looked up, fragment) [reference compound]
IFN-γ expressing K-Ras-G12D responder T cells upon co-culture [3, 5]: did not elicit increases | IFN-γ expressing K-Ras-G12V responder T cells upon co-culture [1, 6]: did not elicit increases
